Values quoted from earlier work, collected in patent publication US20170065667A1, “METHODS FOR SYNCHRONIZATION OF ESTROUS CYCLES AND OVULATION FOR FIXED TIME ARTIFICIAL INSEMINATION IN CATTLE” (Parnell Technologies Pty Ltd., priority 2014, published 2017).

Tested on: lactating dairy cows
Conditions: dinoprost 25 mg, cloprostenol 0.5 mg; cited from earlier work

Structure (SMILES): CCCCC[C@H](O)/C=C/[C@@H]1[C@@H](C/C=C\CCCC(=O)O)[C@@H](O)C[C@H]1O [dinoprost]
- percentage of cows with complete CL regression: 80%
